Publication PMC5040747, “Preparation and Evaluation of a Novel Class of Amphiphilic Amines as Antitumor Agents and Nanocarriers for Bioactive Molecules” (Pharmaceutical Research, 2016)
Read-outs that look alike come from different tables or passages of the source.

Legend:
A673 = assay: MTT cell proliferation assay, A673; type: cell-based; settings: Homo sapiens, A673, Ewing's Sarcoma, read-out: Cell killing activity IC50
Procedure: (§1) Cells were plated in 96-well tissue culture plates at a density of 1 × 10^3 cells/well, allowed to attach 24 h, and then left untreated or treated with growth medium containing different concentrations of the tested RCn compounds previously dissolved in PBS. After different time periods the cell vitality was determined by MTT assay according to the manufacture’s instruction (Promega). Results are reported as the micromolar concentration of RCn reducing cell survival to 50% (IC50).

143.98.2 = assay: MTT cell proliferation assay, 143.98.2; type: cell-based; settings: Homo sapiens, 143.98.2, Osteosarcoma, read-out: Cell killing activity IC50
Procedure: as §1

[1] = system: pediatric tumor cell lines; assay: MTT cell killing, pediatric tumor cell lines (summary); type: cell-based; settings: Table I
Procedure: as §1

[2] = Maximum tolerated dose in mice; settings: female, mouse, in vivo; single intravenous injection, non-tumor bearing athymic nude mice
Procedure: To determine the MTD, a standard assay dose escalation study was performed. Non-tumor bearing, female, athymic nude mice were injected once with RC16 by the tail vein starting with 0.5 mg/kg. The doses were escalated by 0.25 mg/kg until MTD was achieved. Following convention, each dose was tested on a cohort of 5 mice in individual independent experiments. MTD was defined as the highest dose that could be given resulting in no drug-related moribund state or death or body weight loss ≥ 20% in the first 7 days. Other signs of toxicity such as unusual mouse behavior, lack of movement and poor posture were also monitored. Mice were weighed and observed 3 times per week for any signs of toxicity.

[3] = system: Human Foreskin Keratinocytes (differentiated); assay: MTT cell proliferation assay, normal keratinocytes; type: cell-based; settings: Keratinocyte, normal cells, read-out: Cell killing activity IC50
Procedure: as §1

SK-N-AS = assay: MTT cell proliferation assay, SK-N-AS; type: cell-based; settings: Homo sapiens, Neuroblastoma, read-out: Cell killing activity IC50
Procedure: as §1

Rh41 = assay: MTT cell proliferation assay, Rh41; type: cell-based; settings: Homo sapiens, Rh41, Rhabdomyosarcoma, read-out: Cell killing activity IC50
Procedure: as §1

S462.TY cells = assay: Interaction of RC16 with sialic acid (MTT); type: cell-based, human; settings: 24 h
Procedure: Neuraminidase was used to cleave the sialic acid residues from the polysialilated glycoproteins and gangliosides of the tumor cell surface and the anticancer activity of RC16 was subsequently tested in comparison with the cells not exposed to Neuraminidase. Cells were seeded on 96 well plates at a density of 2 × 10^4 cells /plate and after 24 h were exposed to 50 IU/mL Neuraminidase Type VI from Clostridium Perfrigens (Sigma) for 3 h. Cells were washed 3 times with PBS and afterwards treated with RC16 . The effect on cell number was evaluated after 24 h by MTT assay in comparison with cells not treated with Neuraminidase. The RC16 –sialic acid interaction was also evaluated by adding sialic acid to the culture medium in stoichiometric amount with respect to RC16. In this experiment cells seeded on 96 well plates at a density of 2 × 10^4 cells /plate and after 24 h were treated with a mixture of RC16 : sialic acid (3 μM : 3 μM). After 24 h the effect on cell number was evaluated by MTT assay in comparison with cells treated with pure RC16 or pure sialic acid at the same concentration (3 μM) of the mixture.

WIDr = assay: MTT cell proliferation assay, WIDr; type: cell-based; settings: Homo sapiens, adult tumor cell line, read-out: Cell killing activity IC50
Procedure: as §1

[4] = system: Human Gingival Fibroblasts; assay: MTT cell proliferation assay, normal fibroblasts; type: cell-based; settings: Fibroblast, normal cells, read-out: Cell killing activity IC50
Procedure: as §1

A549 = assay: MTT cell proliferation assay, A549; type: cell-based; settings: Homo sapiens, A549, adult tumor cell line, read-out: Cell killing activity IC50
Procedure: as §1

[5] = system: human keratinocytes, human fibroblasts and HUVEC; assay: MTT cell killing, normal versus tumor cells (summary); type: cell-based
Procedure: as §1

Neuro 2A = assay: In vivo efficacy, metastatic model of murine neuroblastoma; set-up: species or system mouse
Procedure: An efficacy study was performed on an immunocompetent model of neuroblastoma. In this experiment A/J mice were i.v. injected with Neuro 2A (0.2 × 10^6 cells in 100 μL of PBS). After 5 days, the mice were randomized (six animals per group) and treated once with RC16 injected through the tail vein at doses of 20 μg or 40 μg/mouse or vehicle (PBS). After treatment animals were monitored for survival and endpoint criteria.
(§2) Endpoint criteria included tumor volume > 2000 mm3, body weight loss ≥ 20%, unusual mouse behavior, lack of movement and poor posture. Tumor size was measured using digital calipers on alternate days and tumor volume was calculated using the following formula: a x b^2 π/6 where a is the longest diameter and b is the shortest diameter. Mice were also weighed and observed 3 times per week for signs of endpoint condition.

[6] = system: human tumor xenografts (CHLA-20, SK-N-AS, A673, A549, S462TY); assay: In vivo efficacy, human tumor xenograft models
Procedure: Female athymic nude mice were subcutaneously injected with 5 × 10^6 human cancer cells in 150 μL mix of PBS and matrigel (2:1). The mice were then randomized into groups of six animals for each tumor type. This number was chosen because we sought a large effect size and to minimize numbers of mice. When tumors reached a mean volume of 150 mm^3, the animals were treated with RC16 or vehicle alone (PBS), given slowly through the tail vein at the dose of 1 mg/kg, 3 times a week for 3 weeks or orally gavaged at the dose of 2 mg/kg/day for 3 weeks.
as §2

[7] = system: SH-SY5Y, A673 and 143.98.2 cells; assay: Annexin V-FITC/7AAD flow cytometry (apoptosis); type: cell-based, human; settings: 5 μM RC16, 24 h, all cell lines
Procedure: SH-SY5Y, A673 and 143.98.2 cells were stained with Annexin V-FITC/7AAD according to the manufacturer’s instructions (Biosciences). Briefly, adherent cells were seeded in 6 multi wells at a concentration of 4.5 × 10^5 cells/well and after 24 h treated with 5 μM RC16 for15 h and 24 h. At the end of the treatment the cells were detached, washed twice with cold PBS and then suspended in annexin binding buffer containing 5 μl of Annexin V-FITC and 5 μl of 7AAD. The samples were gently vortexed and incubated 15 min at 25°C in the dark. Finally, 400 ul binding buffer were added to each tube and the samples were analyzed by BD LSR II (Biosciences). The analysis was performed by FlowJo software version 10.0.5.

In the case of `CCCCCCCCCCCCCCC1CN2CCCN3CCCCCC132` (centres unmarked) [RC16, 2-tetradecyl-4,8-diazatricyclo[6.5.0.0^1,^4]tridecane], the IC50 (A673; 24 h) is reported as 0.8 µM, the IC50 (A673; 48 h) is reported as 0.65 µM and the IC50 (143.98.2; 24 h) is reported as 0.5 µM. For the same compound, the IC50 (143.98.2; 48 h) was 0.32 µM, the “Cell killing (qualitative)” value [1] was “most active” and the MTD at 7 days [2] was 4 mg/kg. For the same compound, the IC50 ([3]; 24 h) was 15.2 µM, the IC50 ([3]; 48 h) was 13.5 µM and the IC50 (SK-N-AS; 24 h) was 0.88 µM. For the same compound, the IC50 (SK-N-AS; 48 h) was 0.67 µM, the IC50 (Rh41; 24 h) was 0.25 µM and the IC50 (Rh41; 48 h) was 0.15 µM. The “Anticancer activity after Neuraminidase pre-treatment of cells” value (S462.TY cells; RC16 3 μM, versus cells not exposed to Neuraminidase) was “decreased the anticancer activity of RC16”, the “Anticancer activity with sialic acid added to culture medium” value (S462.TY cells; RC16 : sialic acid 3 μM : 3 μM, versus pure RC16) was “decreased the RC16 anticancer activity” and the IC50 (WIDr; 24 h) was 7.3 µM. For the same compound, the IC50 (WIDr; 48 h) was 6.02 µM, the IC50 ([4]; 24 h) was 11.8 µM and the IC50 ([4]; 48 h) was 10.5 µM. For the same compound, the IC50 (A549; 24 h) was 6.62 µM, the IC50 (A549; 48 h) was 5.58 µM and the “IC50 for normal cells relative to tumor cells” value [5] was “more than tenfold higher”. For the same compound, the “Mean survival time versus controls” value (Neuro 2A; A/J mice, single i.v. dose 20 μg or 40 μg/mouse) was “significant increase in the mean survival time”, the “Treated mice healthy and alive, no macroscopic disease at necropsy” value (Neuro 2A; end of experiment (90 days), 20 μg or 40 μg/mouse i.v.) was 3 of the 12 and the “Antitumor activity (inhibition of tumor growth, RTV)” value ([6]; 1 mg/kg i.v. 3 times a week for 3 weeks or 2 mg/kg/day oral gavage for 3 weeks) was “strong antitumor activity”. For the same compound, the “Weight loss or signs of toxicity during treatment” value ([6]; i.v. 1 mg/kg 3 times a week or gavage 2 mg/kg/day, 3 weeks) was “No weight loss or signs of toxicity” and the “Apoptosis (sum of LR and UR quadrants)” value [7] was “approximately 100%”.
